{
  "source": "patent US6713048B2",
  "about": "“Δ9 tetrahydrocannabinol (Δ9 THC) solution metered dose inhalers and methods of use” (Virginia Commonwealth University, priority 1998, dated 2004)",
  "key": {"[1]": {"assay": "Apparent solubility of Δ^9 THC in ethanol/HFA propellant blends", "format": "physicochemical", "excerpt": "When the propellant is a hydrofluoroalkane, it has been discovered that the propellant may be used with or without a solvent such as ethanol. Higher percentages of solvent generally allow higher levels of dissolution of Δ^9 THC. However, higher percentages of solvent also cause droplet size to increase. […] Within this range of percentages, pharmaceutically useful concentrations of Δ^9 THC can be achieved and droplet size is still small enough (<5.8 um) to provide excellent aerosol delivery of the drug. While these ratios reflect preferred embodiments of the invention, it will be recognized by those of skill in the art that the exact ratio of propellant to solvent (e.g. ethanol) may vary according to the desired final concentration of Δ^9 THC and droplet size. Any ratio of propellant to solvent that results in appropriate sized droplets and adequate dissolution of the Δ^9 THC may be used in the practice of this invention, and this will generally be in the range of from 100 to 80% propellant and 0 to 20% solvent. It is expected that a wide variety of solvents, such as ethanol, propanol, propylene glycol, glycerol, polyethylene glycol, etc. may be used in the preparation of formulations contemplated by this invention."}, "[2]": {"assay": "Blood levels of Δ^9-THC by LC-MS", "conditions": "mouse, whole blood", "experimental": "(§1) Whether inhalation exposure to Δ^9 THC aerosol would elicit pharmacological effects indicative of cannabinoid activity in mice (Compton, D. R., Rice, K. C., De Costa, B. R., Rzdan, R. K., Melvin, L. S., Johnson, M. R., Martin, B. R., Cannabinoid structure-activity relationships: Correlation of receptor binding and in vivo activities, J Pharmacol Exp Ther, 265:218-226 (1993); Little et al., 1988) was determined.\n(§2) Blood and brain levels of Δ^9-THC were determined as follows. Extraction and LC-MS quantification of Δ^9-THC from whole blood and brain tissue were modified from Lichtman, A. H., Poklis, J. L., Wilson, D. M., Martin, B. R., The pharmacological activity of inhalation exposure to marijuana smoke in mice, Drug Alc Depend, 63:107-116 (2001). Particularly, THC and 2H^3-THC were extracted from brain material which contains a high degree of lipids. Acetonitrile was added to the pelletized solids and stored in a freezer overnight to separate the acetonitrile layer (which contained THC/2H^3-THC) from the aqueous layers. The following day the acetonitrile layer was removed. In the Lichtman et al., study, 2 ml of 9:1 NaOH was added and the sample was vortexed. Four ml of 9:1 hexane:ethyl acetate was added and the sample was vortexed and spun […] for 30 minutes. The vials were then centrifuged at 4,000 rpm […] for 10 minutes. The organic layer was removed and evaporated. Upon drying, a derivatizing agent was added and the sample was vortexed, and each sample analyzed by GC/MS. In the present experimentation, the acetonitrile was instead evaporated to dryness under nitrogen. The material was then resolubilized in 0.1 ml methanol. LC-MS identification was used to quantify Δ^9-THC/2H^3-THC in blood and brain matrices. […] Fifty ng of ^2H3-THC (Radian Corporation, Austin, Tex.) was added to the blood sample, brain homogenate, and calibrators as an internal standard. Following an equilibration period, 2.5 ml of cold acetonitrile (HPLC grade, Fisher Scientific, Raleigh, N.C.) was added drop-wise while vortexing. The samples were then centrifuged (Precision Vari-Hi-Speed Centricone, Precision Scientific Co., Chicago, Ill.) at 2500 rpm for 15 minutes to pelletize solids, then stored in the freezer (−20° C.) overnight, allowing the acetonitrile layer to separate from the aqueous layers. The acetonitrile layer was then removed and evaporated to dryness under nitrogen. The Δ^9-THC/^2H3-THC was then resolubilized in 0.1 ml methanol (HPLC grade, Fisher Scientific).\n(§3) LC-MS identification was used for quantification of Δ^9-THC and ^2H3-THC in blood and brain matrices using an 85:15 methanol: 1% glacial acetic acid (0.1% formic acid) mobile phase. A guard column was used inline with the standard reverse phase C18 column. The mass spectrometer was run in APCI+mode. Ions analyzed in single ion monitoring mode were 315 for Δ^9-THC and 318 for ^2H3-THC. A calibration curve was constructed for each assay based on linear regression using the peak-area ratios of Δ^9-THC to ^2H3-THC of the extracted calibration samples."}, "[3]": {"assay": "in vivo", "conditions": "for concentration at 20 min: brain", "experimental": "as §1, §2, §3"}, "[4]": {"system": "Spasticity related to multiple sclerosis", "conditions": "oral 10 or 15 mg THC, rectal 5 or 10 mg THC; 2 patients; cited from earlier work"}, "[5]": {"system": "Spasticity related to multiple sclerosis", "conditions": "13 patients, cited from earlier work"}, "[6]": {"system": "airways", "conditions": "nebulized micro-aerosol, propylene glycol vehicle; cited from earlier work"}, "[7]": {"system": "Nausea and emesis due to Cancer chemotherapy", "conditions": "oral 15 mg THC, 116 patients, cited from earlier work"}, "[8]": {"system": "Nausea and emesis due to Cancer chemotherapy", "conditions": "oral 10 mg/m^2 THC every 3 hours, 5 doses, 15 patients, cited from earlier work"}, "[9]": {"system": "Spasticity related to multiple sclerosis", "conditions": "5 or 10 mg THC; 9 patients; cited from earlier work"}, "[10]": {"system": "healthy and asthmatic subjects", "conditions": "aerosolized Δ^9-THC from MDI, cited from earlier work"}, "[11]": {"conditions": "10 mg prochloperzine or placebo"}},
  "note": "“Also recorded” adds a separate entry of the source.",
  "data": [
    {"smiles": "CCCCCc1cc(O)c2c(c1)OC(C)(C)[C@@H]1CCC(C)=C[C@@H]21", "note": "(relative stereo) [Δ^9 THC, (6aR-trans)-6a,7,8,10a-tetrahydro-6,6,9-trimethyl-3-pentyl-6H-dibenzo[b,d]-pyran-1-ol]", "values": [
      {"measurement": "Apparent Solubility Mean (±SD)", "setting": "[1]; 5% Ethanol/95% HFA 134a", "value": 1.585, "unit": "% w/w"},
      {"measurement": "Apparent Solubility Mean (±SD)", "setting": "[1]; 5% Ethanol/95% HFA 227", "value": 1.339, "unit": "% w/w"},
      {"measurement": "Apparent Solubility Mean (±SD)", "setting": "[1]; 10% Ethanol/90% HFA 227", "value": 3.240, "unit": "% w/w"},
      {"measurement": "Apparent Solubility Mean (±SD)", "setting": "[1]; 10% Ethanol/90% HPA 134a", "value": 3.511, "unit": "% w/w"},
      {"measurement": "Apparent Solubility Mean (±SD)", "setting": "[1]; 15% Ethanol/85% HFA 134a", "value": 4.883, "unit": "% w/w"},
      {"measurement": "Apparent Solubility Mean (±SD)", "setting": "[1]; 15% Ethanol/85% HFA 227", "value": 5.94, "unit": "% w/w"},
      {"measurement": "Apparent Solubility Mean (±SD)", "setting": "[1]; 100% HFA 134a, n = 5", "value": 0.224, "unit": "% w/w"},
      {"measurement": "Apparent Solubility Mean (±SD)", "setting": "[1]; 100% HFA 227", "value": 0.147, "unit": "% w/w"},
      {"measurement": "concentration at 20 min", "setting": "[2]; inhaled, 20 actuations", "value": "409 ± 86", "unit": "ng/g"},
      {"measurement": "concentration at 20 min", "setting": "[2]; inhaled, 40 actuations", "value": "788 ± 273", "unit": "ng/g"},
      {"measurement": "concentration at 20 min", "setting": "[2]; inhaled, 60 actuations", "value": "1130 ± 240", "unit": "ng/g"},
      {"measurement": "concentration at 20 min", "setting": "[2]; iv, 1 mg/kg", "value": "102 ± 6", "unit": "ng/g"},
      {"measurement": "concentration at 20 min", "setting": "[2]; iv, 3 mg/kg", "value": "365 ± 39", "unit": "ng/g"},
      {"measurement": "concentration at 20 min", "setting": "[2]; iv, 10 mg/kg", "value": "1320 ± 38", "unit": "ng/g"},
      {"measurement": "brain levels relative to blood levels", "setting": "[3]; following inhalation, mice", "value": "roughly equivalent; also recorded: equivalent concentrations"},
      {"measurement": "brain levels higher than those found in blood", "setting": "[3]; i.v. administration, mice", "value": "approximately two to three"},
      {"measurement": "Kp at 20 min", "setting": "[3]; mouse, brain relative to whole blood, iv", "value": "2 to 3"},
      {"measurement": "concentration at 20 min", "setting": "[3]; mouse, inhaled, 20 actuations", "value": "340 ± 36", "unit": "ng/g"},
      {"measurement": "concentration at 20 min", "setting": "[3]; mouse, inhaled, 40 actuations", "value": "791 ± 94", "unit": "ng/g"},
      {"measurement": "concentration at 20 min", "setting": "[3]; mouse, inhaled, 60 actuations", "value": "890 ± 151", "unit": "ng/g"},
      {"measurement": "concentration at 20 min", "setting": "[3]; mouse, iv, 1 mg/kg", "value": "307 ± 28", "unit": "ng/g"},
      {"measurement": "concentration at 20 min", "setting": "[3]; mouse, iv, 3 mg/kg", "value": "854 ± 42", "unit": "ng/g"},
      {"measurement": "concentration at 20 min", "setting": "[3]; mouse, iv, 10 mg/kg", "value": "3310 ± 190", "unit": "ng/g"},
      {"measurement": "passive mobility and walking ability", "setting": "[4]", "value": "Improvement in passive"},
      {"measurement": "objective measurements of spasticity", "setting": "[5]; oral 2.5 to 15 mg THC once or twice daily", "value": "no significant improvement"},
      {"measurement": "subjective improvement in spasticity", "setting": "[5]; oral, at 7.5 mg THC and higher, once or twice daily", "value": "Significant subjective"},
      {"measurement": "bronchial and systemic effects", "setting": "[6]", "value": "bronchodilation without systemic effects"},
      {"measurement": "antiemetic effect compared with placebo", "setting": "[7]; [11]", "value": "each greater than placebo;"},
      {"measurement": "antiemetic effects, THC vs prochlorperazine", "setting": "[7]; [11]", "value": "Equal antiemetic effects"},
      {"measurement": "CNS side effects compared with prochlorperazine", "setting": "[7]; 10 mg prochloperzine", "value": "considerately more CNS"},
      {"measurement": "patients with a fair response", "setting": "[8]", "value": "excellent response, 40%"},
      {"measurement": "plasma THC levels (mean + SD)", "setting": "[8]", "value": "THC levels 7.1 ± 6.9 (mean ng/ml"},
      {"measurement": "side effects", "setting": "[8]", "value": "tachycardia, few other side"},
      {"measurement": "patients with a reduction in nausea and vomiting", "setting": "[8]; THC (17 mg) laced cigarettes if vomiting occurred", "value": 93, "unit": "% patients had a"},
      {"measurement": "side effects", "setting": "[9]", "value": "treatment, minimal side"},
      {"measurement": "spasticity compared to placebo treatment", "setting": "[9]", "value": "Decrease in spasticity"},
      {"measurement": "systemic side effects (increased heart rate, subjective reports of being 'high')", "setting": "[10]; healthy patients, at higher doses", "value": "substantial systemic side effects"},
      {"measurement": "bronchial effect in healthy patients", "setting": "[10]; healthy patients", "value": "bronchodilation was seen"},
      {"measurement": "bronchial effect in asthmatic patients", "setting": "[10]; some asthmatic patients", "value": "bronchoconstriction occurred"}
    ]}
  ]
}
